Assay results published in patent US20210269478A1, “ADJUVANT FOR CELL CULTURE” (FUKUSHIMA MEDICAL UNIVERSITY, priority 2018, published 2021).

Assays:
[1] = system: stem cell markers Klf4, Nanog, c-Myc, and Sox2 in ADSCs; experiment: Semi-quantitative RT-PCR of stem cell markers in ADSCs cultured on coated dish; format: cell-based, murine
Source text: The result was expressed as a relative value based on the value of mIgG defined as 1. Error bar indicates standard deviation. Asterisk(s) indicate the result of the t-test; where * means P<0.05; ** means P<0.01; and *** means P<0.001.
The result was expressed as a relative value with respect to the value of vehicle defined as 1. Error bar indicates standard deviation in three experiments. Asterisk(s) indicate the result of t-test; where * means P<0.05; ** means P<0.01; and *** means P<0.001.
RNA extraction and RT-PCR were performed using a common method previously described (Sugimoto, et al., PLoS One, 2013, 10: e751062013). […] Semi-quantitative PCR was performed using the GoTaq Green Master Mix Kit (Promega) and primers [Sox2 (5′-[…]-3′ (SEQ ID NO: 23), and 5′-[…]-3′ (SEQ ID NO: 24)); c-Myc (5′-[…]-3′ (SEQ ID NO: 25), and 5′-[…]-3′ (SEQ ID NO: 26)); Nanog (5′-[…]-3′ (SEQ ID NO: 27), and 5′-[…]-3′ (SEQ ID NO: 28)); Klf4 (5′-[…]-3′ (SEQ ID NO: 29), and 5′-[…]-3′ (SEQ ID NO: 30)); and Gapdh (5′-[…]-3′ (SEQ ID NO: 31), and 5′-[…]-3′ (SEQ ID NO: 32))] to amplify the target sequences. […] Then the brightness in a region corresponding to the molecular weight of interest was quantified using the ImageJ (National Institute of Health (NIH)) and statistically analyzed.

[2] = system: ADSCs (adipose-derived stem cells); experiment: Cell proliferation assay, BrdU-positive divided by DAPI-positive cells; format: cell-based, murine
Procedure: The result was expressed as a relative value based on the value of mIgG defined as 1. Error bar indicates standard deviation. Asterisk(s) indicate the result of t-test; where * means P<0.05; ** means P<0.01; and *** means P<0.001.
The results are shown relative to the total cell number defined as 1. P-value was calculated by a chi-square test (n=353, n=501).
Cells (4×10^4 cells) were inoculated in a 6-well culture dish, and, 24 hours later, treated with 5-bromo-2′-deoxyuridine (BrdU; #B-5002, Sigma-Aldrich) at the final concentration of 10 μM for 2 hours, and then fixed with 4% PFA. Then, the sample was stained according to the method recommended by the manufacturer, and imaged with a fluorescent phase-contrast microscope (OLYMPUS IX71, Olympus Corporation) and a DP Controller. The number of BrdU-positive particles was divided by that of DAPI-positive ones to obtain a proliferated cell number.

[3] = system: F9 cells expressing JAM-B and JAM-C; experiment: Cell adhesion assay, crystal violet staining of adhered F9 cells; format: cell-based; conditions: coating at 286 ng/cm^2 in 96-well dish; 30 min after adding cells; relative to vehicle defined as 1
Procedure: JAM-C D1 (286 ng/cm^2) was added to a 96-well plastic culture dish, then F9 stem cells were added thereto, and after 30 min the number of adhered cells was measured with crystal violet staining, while performing no coating as a negative control, and using type I collagen (1,430 ng/cm^2) and rJAM-C (1,430 ng/cm^2) as positive controls. The cell number was expressed as a relative value based on the value of the vehicle defined as 1. Error bar indicates standard deviation. Asterisk(s) indicate the result of the t-test; where * means P<0.05; and *** means P<0.001.
(§1) For each of recombinant soluble JAM-C (polypeptide obtained by linking the Fc region of human IgG1 to the C-terminus of the extracellular domain (Met 1-Asn 241) of human JAM-C; Sino Biological) and murine IgG (GE Healthcare), 20, 100, or 500 ng volume thereof was diluted in 50 μL PBS and disposed into a 96-well round-bottom plate, which was then left standing at 30° C. for 12 hours. As a positive control, 500 ng of collagen Cellmatrix type I-A (Nitta Gelatin Inc.) was processed in the same manner. […]
After washing twice with PBS, ADSCs were detached using a 0.25% trypsin/1 mM EDTA solution and inoculated to the above plate and cultured in a CO2 incubator at 37° C. for 30 min. […] Finally, 50 μL of 5% SDS was used for lysis, and the absorbance was measured at 560 nm wavelength. […]

[4] = system: ADSCs (adipose-derived stem cells); experiment: Cell adhesion assay, crystal violet staining of adhered ADSCs; format: cell-based; conditions: coating at 20, 100, and 500 ng per well in 96-well plate; 30 min after adding cells; versus murine IgG control
Procedure: The rJAM-C, or murine IgG (mIgG) as a negative control (both in 20, 100, and 500 ng (57, 286, and 1,430 ng/cm^2, respectively)), and type I collagen (500 ng) as a positive control were added to a 96-well plastic culture dish, and then ADSCs were added. After 30 min, the number of adhered cells was measured by crystal violet staining, and the relative absorbance was measured. The absorbance was expressed by a relative absorbance based on the result of the vehicle defined as 1. Error bar indicates standard deviation. Asterisk(s) indicate the result of t-test; where * means P<0.05; and *** means P<0.001.
as §1
After washing twice with PBS, ADSCs were detached using a 0.25% trypsin/1 mM EDTA solution and inoculated to the above plate and cultured in a CO2 incubator at 37° C. for 30 min. […] Finally, 50 μL of 5% SDS was used for lysis, and the absorbance was measured at 560 nm wavelength.

Row | Molecule | expression of stem cell markers Nanog, Klf4, Sox2, and c-Myc ([1]; ADSCs in 6-well dish coated at 52 ng/cm^2, relative to vehicle defined as 1) | proliferation ability (BrdU-positive / DAPI-positive cells) ([2]; ADSCs in 6-well dish coated at 52 ng/cm^2, chi-square test) | adhesion of F9 cells (adhered cell number) [3] | adhesion of ADSCs (adherent cell number, relative absorbance) [4] | expression of stem cell markers Klf4, Nanog, c-Myc, and Sox2 ([1]; ADSCs in 12-well dish coated at 132 ng/cm^2, cultured 48 hours, relative to mIgG defined as 1) | proliferation ability (BrdU-positive / DAPI-positive cells) ([2]; ADSCs in 6-well dish coated at 104 ng/cm^2, relative to mIgG defined as 1)
1 | DPRIEWKKI [JAM-C D1] | significantly increased | significantly increased | significantly increased | – | – | –
2 | rJAM-C: polypeptide obtained by linking the Fc region of human IgG1 to the C-terminus of the extracellular domain (Met 1-Asn 241) of human JAM-C; Sino Biological (protein) EAVNLKSSNRNPVVHEFESVELSCIITDSQTSDPRIEWKKIQDGQTTYVYFDNKIQGDLAGRTDVFGKTSLRIWNVTRSDSAIYRCEVVALNDRKEVDEITIELIVQVKPVTPVCRIPAAVPVGKTATLQCQESEGYPRPHYSWYRNDVPLPTDSRANPRFQNSSFHVNSETGTLVFNAVHKDDSGQYYCIASNDAGAARCEGQDMEVYDLN | – | – | – | significantly increased | significantly increased | about 2 fold
